Reference: PubChem BioAssay AID1033 (Sanford-Burnham Center for Chemical Genomics, 2008)
The source made the active and inactive calls. No rule for the calls is given here.

Molecular target: Chaperone protein DnaK (Escherichia coli (strain K12)) (UniProt P0A6Y8)
Assay: E. coli DnaK SBD ligand binding – biophysical, NMR, chaperone (AID 1033)
Details: Purified DnaK SBD

Sequence of Chaperone protein DnaK (Escherichia coli (strain K12)) (P0A6Y8 whole entry, looked up): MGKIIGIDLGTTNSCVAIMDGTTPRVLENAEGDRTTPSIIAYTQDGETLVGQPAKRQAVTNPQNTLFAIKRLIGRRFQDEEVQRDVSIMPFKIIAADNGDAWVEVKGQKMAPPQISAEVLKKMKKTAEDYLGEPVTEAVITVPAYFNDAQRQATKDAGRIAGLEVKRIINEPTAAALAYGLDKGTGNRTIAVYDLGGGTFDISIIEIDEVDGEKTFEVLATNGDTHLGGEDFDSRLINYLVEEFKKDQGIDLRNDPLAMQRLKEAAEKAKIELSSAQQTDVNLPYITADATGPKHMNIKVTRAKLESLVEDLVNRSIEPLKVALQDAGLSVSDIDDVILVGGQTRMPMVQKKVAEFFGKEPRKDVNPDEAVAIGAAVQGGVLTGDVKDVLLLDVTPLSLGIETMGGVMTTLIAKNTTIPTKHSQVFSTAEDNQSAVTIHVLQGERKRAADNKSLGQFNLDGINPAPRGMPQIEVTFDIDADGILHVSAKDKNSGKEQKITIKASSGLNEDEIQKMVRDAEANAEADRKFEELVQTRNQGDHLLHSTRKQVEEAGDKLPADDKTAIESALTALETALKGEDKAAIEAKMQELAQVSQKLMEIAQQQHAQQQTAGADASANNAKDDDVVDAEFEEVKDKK

Structure (SMILES) | Kd
CC1(C)C(=O)C=C[C@@]2(C)C1C=C[C@]1(C)C2CC[C@@]2(C)[C@H](c3ccoc3)OC(=O)C3OC321 (stereo partly drawn) | > 4 mM (inactive)
CCC(=O)NC(=S)Nc1ccc(O)cc1 | > 4 mM (inactive)
O=C1CC(=O)N(c2ccccc2)C(=O)N1 | > 4 mM (inactive)
CCC(=O)Oc1ccc(N2C(=O)CCC2=O)cc1 | > 4 mM (inactive)
Cc1cc(=O)oc2cc3c(cc12)OCCO3 | > 4 mM (inactive)
CCC(=O)n1nc(-c2ccco2)nc1N | > 4 mM (inactive)
CSc1nc(O)cc(=O)[nH]1 | > 4 mM (inactive)
COc1c(O)cc2c(c1O)[C@H]1O[C@H](CO)[C@@H](O)[C@H](O)[C@@H]1OC2=O | > 4 mM (inactive)
COc1cc(/C=C/C(=O)/C=C(O)/C=C/c2ccc(O)c(OC)c2)ccc1O | > 4 mM (inactive)
Cc1cc(=O)n2nc(-c3ccccc3)sc2n1 | > 4 mM (inactive)
COC(=O)c1c(SC)nc(-c2ccccc2)[nH]c1=O | > 4 mM (inactive)
CC(=O)Nc1c(C#N)c(C(C)(C)C)cn1C | > 4 mM (inactive)
O=c1[nH]c2ccccc2c(=O)n1CCCO | > 4 mM (inactive)
Clc1ccccc1OCCn1ccnc1 | > 4 mM (inactive)
COc1ccc2c(c1)OCc1c-2oc2cc(OC)ccc12 | > 4 mM (inactive)
COC1=CC(C)[C@@H]2C[C@H]3OC(=O)C[C@H]4C(C)=C(OC)C(=O)C([C@@]34C)[C@@]2(C)C1=O (stereo partly drawn) | > 4 mM (inactive)
CN(C)S(=O)(=O)c1ccc(C(=O)NN)cc1 | > 4 mM (inactive)
Cc1n[nH]c(=S)[nH]c1=O | > 4 mM (inactive)
OCc1ccccc1O[C@@H]1O[C@H](CO)[C@@H](O)[C@H](O)[C@H]1O | > 4 mM (inactive)
Cc1ccc(C)n1/N=C1\NC(=O)CS1 | > 4 mM (inactive)
CC(=O)Oc1cc(OC(C)=O)c2c(c1)O[C@H](c1ccc(OC(C)=O)c(OC(C)=O)c1)[C@H](OC(C)=O)C2 | > 4 mM (inactive)

Structure (SMILES) | Kd
CC(=O)c1c(C)nc(-c2ccc(Cl)cc2Cl)n1O | > 4 mM (inactive)
O=c1nc(N2CCOCC2)nc2n1CCO2 | > 4 mM (inactive)
c1cncc(Nc2nc(-c3ccncc3)cs2)c1 | > 4 mM (inactive)
O=C1CSC(c2ccccc2)N1 (stereo not drawn) | > 4 mM (inactive)
O=C(O)Cc1noc2ccccc12 | > 4 mM (inactive)
CC(=O)c1csc(-c2cc(C)on2)n1 | > 4 mM (inactive)
COC(=O)[C@@H]1OC(=O)C2OC23[C@@]1(C)CCC1[C@]2(C)C(C[C@@H](O)[C@]13C)C(C)(C)[C@H](OC(C)=O)C[C@@H]2OC(C)=O (stereo partly drawn) | > 4 mM (inactive)
N=C1/C(=C\c2ccccc2)C(=O)N=C2SC=NN12 | > 4 mM (inactive)
CC(C)[C@@H]1CC[C@@H](C)CC1=O | > 4 mM (inactive)
Cc1ccc(C(C)C)cc2c(C)ccc1-2 | > 4 mM (inactive)
CNc1nc(C)nc(-n2nc(C)cc2C)n1 | > 4 mM (inactive)
Cc1ccc(CN2CCN(C(=O)C3CCC3)CC2)cc1 | > 4 mM (inactive)
O=c1c(O)c(-c2ccc(O)c(O)c2)oc2cc(O)ccc12 | > 4 mM (inactive)
O=C1CCC(=O)N1c1ccc(O)cc1 | > 4 mM (inactive)
NCC(O)c1ccc(O)cc1 (stereo not drawn) | > 4 mM (inactive)
CCOC(=O)c1cc(C)[nH]n1 | > 4 mM (inactive)
C#CCCCCCCCCCCCc1ccco1 | > 4 mM (inactive)
O=c1oc2ccccc2cc1O | > 4 mM (inactive)
O=C(O)c1ccc2c(c1)OCCCO2 | > 4 mM (inactive)
O=C(Nc1nnc(-c2ccncc2)o1)c1cccs1 | > 4 mM (inactive)
Cc1ccc(SCc2cc(=O)n3[nH]cnc3n2)cc1 | > 4 mM (inactive)

Structure (SMILES) | Kd
Cc1ccc2nc(NC(=O)CN3CCOCC3)sc2c1 | > 4 mM (inactive)
c1ccc(CCc2nc(-c3ccncc3)no2)cc1 | > 4 mM (inactive)
Cn1nnc2cc(CN)ccc21 | > 4 mM (inactive)
O=C(O)CNCC(O)Cn1c2ccccc2c2ccccc21 (stereo not drawn) | > 4 mM (inactive)
Cc1ccc(C2NS(=O)(=O)N=C2N)cc1 (stereo not drawn) | > 4 mM (inactive)
CCOc1ccc(-c2c(=O)n(O)c3ccccc3[n+]2[O-])cc1 | > 4 mM (inactive)
Cc1cc(=O)oc2c1c(C)nn2CN1CCN(C)CC1 | > 4 mM (inactive)
O=C(O)c1ccc(-c2cnco2)cc1 | > 4 mM (inactive)
COc1cc(/C=C/C(=O)O)cc(OC)c1OC | > 4 mM (inactive)
Nc1nnc(SCc2ccc(F)cc2)s1 | > 4 mM (inactive)
CC(=O)Nc1cc(S(=O)(=O)N(C)C)ccc1Cl | > 4 mM (inactive)
CSc1nc2nc(C)cc(=O)n2[nH]1 | > 4 mM (inactive)
Nc1cc(C(=O)N2CCCC2)cc(C(=O)N2CCCC2)c1 | > 4 mM (inactive)
Cc1ccc(C(=O)Nn2cnnc2)s1 | > 4 mM (inactive)
CSc1ccn(CCC(=O)O)c(=O)n1 | > 4 mM (inactive)
Cn1c(SCC(=O)NCCO)nc2ccccc2c1=O | > 4 mM (inactive)
O=S(=O)(Nc1cccnc1Cl)c1ccccc1 | > 4 mM (inactive)
COc1ccc([C@@H]2CC(=O)c3c(O)cc(O[C@@H]4O[C@H](CO[C@H]5O[C@@H](C)[C@H](O)[C@@H](O)[C@H]5O)[C@@H](O)[C@H](O)[C@H]4O)cc3O2)cc1O | > 4 mM (inactive)
C=C[C@@](C)(O)CCC1C(=C)CCC2[C@@](C)(CO)CCC[C@]12C (stereo partly drawn) | > 4 mM (inactive)
Cc1ccc(-c2c(C)n([O-])c(C)c(C)[n+]2=O)cc1 | > 4 mM (inactive)
CCn1c2ccccc2c2nn(C)c(=N)nc21 | > 4 mM (inactive)

Structure (SMILES) | Kd
CC(=O)O[C@H]1C[C@@H](OC(C)=O)C(C)(C)C2CC(=O)[C@]3(C)C(CC[C@@]4(C)[C@H](C(=O)O)OC(=O)C5OC543)[C@]21C (stereo partly drawn) | > 4 mM (inactive)
Cc1ccc(N2C(=O)CC(Sc3ncn[nH]3)C2=O)cc1 (stereo not drawn) | > 4 mM (inactive)
NCc1oc(-c2ccccc2)cc1C(=O)O | > 4 mM (inactive)
Nc1ccc2nsnc2c1 | > 4 mM (inactive)
NC12CC3CC(C1)CC(C(=O)O)(C3)C2 | > 4 mM (inactive)
O=C1CCCc2c(O)cccc21 | > 4 mM (inactive)
O=C(O)c1ccc(-n2cccc2)cc1 | > 4 mM (inactive)
CN(C)/C=N/S(=O)(=O)c1ccccc1 | > 4 mM (inactive)
Cc1cc(=O)[nH]c2ccccc12 | > 4 mM (inactive)
O=c1c(O)c(-c2ccccc2)oc2cc(O)ccc12 | > 4 mM (inactive)
Cn1ccnc1C(O)c1ccccc1 (stereo not drawn) | > 4 mM (inactive)
COn1c(=O)c(C)[n+]([O-])c2ccccc21 | > 4 mM (inactive)
CCN=Cc1c(O)n(-c2ccccc2C)c(=O)[nH]c1=O | > 4 mM (inactive)
Cc1noc(C)c1C(=O)Nc1sc(C)c(C)c1C#N | > 4 mM (inactive)
C=C(C)[C@H]1COc2cc3oc(=O)ccc3cc2O1 | > 4 mM (inactive)
Cn1c(=O)cc(N2CCCCC2)[nH]c1=O | > 4 mM (inactive)
COC(=O)[C@@H]1OC(=O)C2OC23[C@@]1(C)CCC1[C@]2(C)C(C[C@H](O)[C@]13C)C(C)(C)[C@H](OC(C)=O)C[C@@H]2OC(C)=O (stereo partly drawn) | > 4 mM (inactive)
NC(=O)Cn1cnc2ccccc21 | > 4 mM (inactive)
NCc1ccc2c(c1)OCCO2 | > 4 mM (inactive)
S=C(c1ccc(N2CCOCC2)cc1)N1CCCCC1 | > 4 mM (inactive)
